Test results as given in US8603968B2, “Cyclic peptides comprising at least one aza-β3-aminoacyl residue and their uses” (Centre National de la Recherche Scientifique, priority 2007, dated 2013).
Values after ≈ are worked out from the molar mass of the structure shown.

Key:
sheep erythrocytes = test: Haemolytic activity on sheep erythrocytes; assay type: cell-based; details: at the doses tested, 1 hour at 37° C.
Procedure: The haemolytic activity of the pseudopeptides is tested on sheep blood cells. The sheep erythrocytes are washed three times with a phosphate buffer saline [PBS buffer (pH 7.4)] by 5 minutes' centrifugation at 900 g and the final pellet is suspended in PBS. For the concentration of the erythrocyte solution, a concentration of erythrocytes corresponding to OD540 nm is established, and for the control well 100% haemolysis in the presence of 0.8 Triton X-100. The solutions of the different pseudopeptides diluted in water (100 μL) are arranged in a 96-well plate. 50 μL, of PBS 2× buffer solution then 50 μL of sheep erythrocyte solution is added to these solutions in order to produce a final volume of 200 μL. The suspensions obtained are incubated for 1 hour at 37° C. The samples are then centrifuged at 500 g for 5 min. 130 μL of supernatant of each sample is transferred to a new 96-well plate. The release of haemoglobin is quantified by measuring the absorbance at 540 nm of the supernatant by means of a microplate reader. The controls corresponding to the absence of haemolysis (white) and 100% haemolysis involve, respectively, the addition of 100 μL of PBS buffer and 100 μL of a 2% Triton X-100 solution to the wells containing 100 μL of saline erythrocyte solution (50 μL of PBS 2× and 50 μL of blood cell solution). Each measurement is carried out in triplicate.

Streptococcus aureus = test: Antibacterial activity in poor medium enriched with beef extract PBB (MIC, MBC); assay type: cell-based; details: increasing doses (FIG. 3)
Procedure: (§1) The tests were carried out on Gram-negative bacterial strains of Group 2 (pathogens): Escherichia coli, Salmonella thyphimurium, Pseudomonas aeruginosa, Klebsiella pneumonie and on Gram-positive strains: Bacillus megaterium (group 1) and […] (group 2).
(§2) The bacteria are incubated in a PB poor medium in the case of the bacteria: Escherichia coli, Pseudomonas aeruginosa, Klebsiella pneumoniae, Bacillus megaterium and in a poor medium enriched with beef extract PBB in the case of two other bacteria: […] and Salmonella thyphimurium with increasing concentrations of peptides or analogues ranging from 1 to 320 μg/ml. This test is carried out in 96-well microplates. After incubation for 18 hours at 30° C. or 37° C., the optical density of the microplates is read at 595 nm in order to evaluate the bacterial growth and determine the minimum inhibitory concentration (MIC) for each molecule tested. Each measurement is performed in triplicate.
(§3) Moreover, the minimum bactericidal concentration (MBC) is determined by plating the contents of the wells where there is an absence of bacterial growth on dishes containing rich media (Luria broth or (LB) or Brain Heart Infusion (BHi). The MBC corresponds to the concentration at which no bacterial colony is detected after incubation for 24 hours at 30 or 37° C.

Salmonella thyphimurium = test: Antibacterial activity in poor medium enriched with beef extract PBB; assay type: cell-based; details: increasing doses (FIG. 4)
Procedure: as §1, §2, §3

[1] = tested on: Gram-negative bacteria (E. coli to A. caviae); test: Antibacterial activity in TSB rich medium (MIC), Gram-negative bacteria; assay type: cell-based; details: 48 hours, at the concentrations tested (0.78-100 μM)
Procedure: The tests were carried out on Gram-negative bacterial strains: Escherichia coli ATCC 25922, Salmonella enterica ATCC 13076, Pseudomonas aeruginosa ATCC 27853, Klebsiella oxytoca CIP 7932, Enterobacter aerogenes ATCC 13048 and Aeromonas caviae ATCC 15468 and on Gram-positive strains: Staphylococcus aureus ATCC 25923, Enterococcus faecalis CIP 186, Streptococcus equinus ATCC 5623, Listeria monocytogenes SOR 100, Bacillus megaterium ATCC 10778, Lactococcus gaviae ATCC 43921, Micrococcus luteus ATCC 10240.
The bacteria (10^5 CFU/mL) are incubated in a TSB (Tryptic Soy Broth) rich medium with increasing concentrations of cyclopseudopeptides (0.78, 3.12, 6.25, 12.5, 25, 50, 100 μM). This test is carried out in 96-well microplates. After incubation for 48 hours at 20° C. or 37° C., the optical density of the microplates is read at 595 nm in order to evaluate the bacterial growth and determine the minimum inhibitory concentration (MIC) for each molecule tested. Each measurement is carried out in triplicate.

[2] = tested on: mouse cell line ascites 302-sp; test: In vitro cytotoxicity (MTT); assay type: cell-based
Procedure: (§4) The effects of the different cyclic pseudopeptides on cell growth are evaluated in sterile 96-well plates. The cells are seeded at 5.10^5 cells per mL of culture medium (100 μL per well). The different pseudopeptides (10 μL per well) diluted in a saline solution are added at the time of seeding at the appropriate concentration (from 1 μg/mL to 1 mg/mL). The incubations are carried out at 37° C. under a humidified atmosphere containing 5% CO2 for 24 or 48 hours.
(§5) After exposure to the compounds, the cell growth is assessed by measuring the formation of formazan from 3-(4,5-dimethylthiazol-2-yl)-2,5-diphenyltetrazolium (MTT). The absorbance at 540 nm is measured by a Titertek Multiscan MCC/340 microplate reader. Each measurement is carried out in triplicate.

[3] = In vitro cytotoxicity (MTT); assay type: cell-based, hamster; details: hamster, CHO-K1 cells; read-out: lethal dose for 50% of the cells (LD50)
Procedure: as §4, §5

hamster cells (CHO-K1) = test: In vitro cytotoxicity (MTT); assay type: cell-based; details: at 10 μg/mL
Procedure: as §4, §5

rabbit erythrocytes [4] = test: Haemolytic activity on rabbit erythrocytes; assay type: cell-based
Procedure: The haemolytic activity of the pseudopeptides is tested on rabbit blood cells. Fresh rabbit erythrocytes are washed three times with a phosphate buffer saline [PBS buffer (pH 7.4)] by centrifugation for 5 min at 900 g and the final pellet is suspended in PBS. The NafNaf pseudopeptide solutions diluted in PBS (90 μL) are arranged in a 96-well plate. 90 μL of 2% rabbit erythrocyte solution (v/v) is added to these solutions to give a final volume of 180 μL and a concentration of 1% (v/v) blood cells. The suspensions obtained are incubated for 1 hour at 37° C. The samples are then centrifuged at 500 g for 5 min. 100 μL of supernatant of each sample is transferred into a new 96-well plate. The release of the haemoglobin is quantified by measuring the absorbance at 415 nm of the supernatant using a microplate reader. The controls corresponding to the absence of haemolysis (white) and to a 100% haemolysis consist, respectively, of the addition of 90 μL of PBS buffer and 90 μL of a 2% solution of Triton X-100 to the 90 μL of 2% blood cell solution. Each measurement is carried out in triplicate.

rabbit erythrocytes [5] = details: comparison peptide alternating L and D amino acids; cited from earlier work

## CC(C)C[C@@H]1NC(=O)CN(Cc2ccc(F)c3ccccc23)NC(=O)[C@H](CC(C)C)NC(=O)CN(Cc2cccc3ccccc23)NC(=O)[C@H](CCCCN)NC(=O)CN(CCCCN)NC1=O [4Fluo1Naf, c[-Leu-azaβ^3Lys-Lys-azaβ^3(1)-Nal-Leu-azaβ^3(4F-1)Nal-]]
Sheep erythrocytes
  haemolytic activity: no significant haemolytic activity

## CC1(C)S[C@@H]2[C@H](NC(=O)[C@H](N)c3ccccc3)C(=O)N2[C@H]1C(=O)O [Ampicillin]
Streptococcus aureus
  concentration at which active: 1 µg/mL
Salmonella thyphimurium
  concentration at which active: 1 µg/mL

## CCCCCCCCCCCCN1CC(=O)N[C@@H](Cc2c[nH]c3ccccc23)C(=O)NN(Cc2cccc3ccccc23)CC(=O)N[C@@H](CCCCN)C(=O)NN(CCCCN)CC(=O)N[C@@H](CC2CCCCC2)C(=O)N1 [Chado, c[-Lys-azaβ^3Lys-Cha-azaβ^3Amy-Trp-azaβ^3(1)Nal-]]
[1]
  activity on the Gram-negative bacteria: no activity

## N=C(N)NCCC[C@@H]1NC(=O)CN(CC2CCCCC2)NC(=O)[C@H](Cc2c[nH]c3ccccc23)NC(=O)CN(Cc2ccc(F)cc2)NC(=O)[C@H](CC2CCCCC2)NC(=O)CN(CCCCN)NC1=O [FluoKil, c[-Arg-azaβ^3Lys-Cha-azaβ^3(4)Fpa-Trp-azaβ^3Cha-]]
Sheep erythrocytes
  haemolytic activity: no significant haemolytic activity

## CC(C)C[C@@H]1NC(=O)CN(Cc2cccc3ccccc23)NC(=O)[C@H](CC(C)C)NC(=O)CN(Cc2cccc3ccccc23)NC(=O)[C@H](CCCCN)NC(=O)CN(CCCCN)NC1=O [NafNaf, c[-Leu-azaβ^3Lys-Lys-azaβ^3(1)Nal-Leu-azaβ^3(1)Nal-]]
[2]; ascites 302-sp, compared with hamster cells
  LD50: slightly lower
[2]; at 10 μg/mL
  effect on the cell viability: slight effect
[3]
  CC50: ~40 µg/mL (≈ 43.4 µM)
Hamster cells (CHO-K1)
  cytotoxic effect: no cytotoxic effect
Rabbit erythrocytes [4]; at 20 μg/mL
  action on the erythrocytes: no action
Rabbit erythrocytes [4]; at the concentrations at which it is bactericidal
  haemolytic activity: no haemolytic activity
Sheep erythrocytes
  haemolytic activity: no significant haemolytic activity

## [-(D)Lys-(L)Lys-(D)Leu-(L)Trp-(D)Leu-(L)Trp-]
Rabbit erythrocytes [5]
  concentration at which haemolytic: 80 µg/mL
